Reference: patent publication US20250338846A1, “COMPOSITIONS HAVING PESTICIDAL UTILITY AND PROCESSES RELATED THERETO” (CORTEVA AGRISCIENCE, LLC, priority 2022, published 2025)

How the values were obtained:
[1] = test system: Sweet Potato Whitefly (Bemisia tabaci, BEMITA); test: Bioassay 2: Sweet Potato Whitefly, spray on cotton seedlings at crawler emergence, nymphs counted 7-9 days after treatment; format: in vivo
Procedure, shortened: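 Cotton seedlings pruned to one true leaf were colonized by adult B. tabaci for 24 h egg-laying, then sprayed once >25% crawler emergence was underway; solutions 0.001% to 0.00000001% (w/v) in acetone/water with 0.025% Tween 20. Held ~25° C; live 2-3 instar nymphs counted 7-9 days later, Abbott-corrected % control.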

[2] = test system: Beet Armyworm (Spodoptera exigua, LAPHEG); test: Bioassay 6: Beet Armyworm, artificial lepidopteran diet, live larvae after 5 days; format: in vivo; conditions: BAW
Description: where X=No. of live nymphs on solvent check and Y=No. of live nymphs on treated bean segments. In Table B5 the “Expected % Control” was calculated using the method described in Colby S. R., Weeds, 1967, 15, 20-22. Bioassay 6: Beet Armyworm (Spodoptera exigua, LAPHEG) (BAW), and Diamondback Moth (Plutella xylostella, PLUTMA) (DBM).
Stock solutions were prepared with Formula One as well as for each of the active ingredients individually. Test solutions were prepared from the stock solutions. Test solutions were prepared containing Formula One, the individual active ingredients, and mixtures of Formula One with each of the active ingredients. […]
The test solutions were tested against BAW and DBM using the following procedure: An artificial lepidopteran diet (Multispecies Lepidopteran Diet, Southland Products) was distributed in 128-cell bioassay trays (Frontier Agricultural Sciences™). […] After 5 days, the number of live larvae were recorded from each cell and percent control was measured using Abbott's correction formula (W. S. Abbott, J. Econ. Entomol. 18 (1925), pp. 265-267) as follows:
where X=No. of live larvae on solvent check and Y=No. of live larvae on treated diet. In Table B6 the “Expected % Control” was calculated using the method described in Colby S. R., Weeds, 1967, 15, 20-22. […]

Row | Compound | Average % Control AI ([1]; AI alone 1 (10-5) % w/v) | Average % Control AI ([1]; AI alone 0.1 (10-5) % w/v) | other results
1 | Cc1c(COC(=O)[C@@H]2[C@H](/C=C(\Cl)C(F)(F)F)C2(C)C)cccc1-c1ccccc1 (racemic) [Bifenthrin] | 40% |  | 
2 | CC1(C)[C@H](C(=O)O[C@H](C#N)c2cccc(Oc3ccccc3)c2)[C@@H]1/C=C(\Cl)C(F)(F)F (racemic) [Lambda Cyhalothrin] | 27% |  | 
3 | C/C(=N\C#N)N(C)Cc1ccc(Cl)nc1 [Acetamiprid] | 29% |  | 
4 | CCN(C(=O)CCS(C)(=O)=O)c1sc(-c2cccnc2)nc1Cl [Formula F1, N-(4-chloro-2-(pyridin-3-yl)thiazol-5-yl)-N-ethyl-3-(methylsulfonyl)propanamide] |  |  | Average % Control F1 ([2]; F1 alone 0.4 % w/v): 0%
5 | Abamectin |  | 16% | Average % Control AI ([2]; AI alone, Ratio F1:AI 100:1): 50%
6 | Emamectin Benzoate | 5% | 0% | 
